Measured values reported in US20250136576A1, “Heterocyclic Compounds and Uses Thereof” (ACEA Therapeutics, Inc., priority 2021, published 2025).
pIC50: −log10 of the molar value.

These molecules were tested on KM12-luc cells (assay: Cell proliferation and growth inhibition assay (CCK-8) in KM12-luc). Conditions: KM12-Luc, 72 h, KM12-luc cells, treated with test compounds for 72 hrs, CCK-8 viability; read-out: NTRK IC50 in KM12-luc.
Assay type: cell-based
Summary of the method: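 IC50 values were fitted by sigmoidal dose-response non-linear regression of CCK-8 OD450 absorbance after 1-4 hrs with reagent. Culture media were IMDM for MV-4-11, RPMI 1640 for H1975 and DMEM for KM12-luc, each with 10% FBS at 37 °C, 5% CO2.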

| SMILES | pIC50 |
| --- | --- |
| CC(=O)Nc1cc(Nc2ncc(Cl)c(-c3cn(C)c4ccccc34)n2)ccc1N(C)C(=O)CN(C)C [Compound 403, N-(2-acetamido-4-((5-chloro-4-(1-methyl-1H-indol-3-yl)pyrimidin-2-yl)amino)phenyl)-2-(dimethylamino)-N-methylacetamide] | 7.33 |
| COc1c(N)nc(Nc2ccc(N(C)CCN(C)C)c(NC(C)=O)c2)nc1-c1cn(C)c2ccccc12 [Compound 295, N-(5-((4-amino-5-methoxy-6-(1-methyl-1H-indol-3-yl)pyrimidin-2-yl)amino)-2-((2-(dimethylamino)ethyl) (methyl)amino)phenyl) acetamide] | 6.80 |
| CC(=O)Nc1cc(Nc2ncc(C(F)(F)F)c(-c3cn(C)c4c(F)cccc34)n2)ccc1N1CC[C@@H](N(C)C)C1 [Compound R-353, (R)—N-(2-(3-(dimethylamino)pyrrolidin-1-yl)-5-((4-(7-fluoro-1-methyl-1H-indol-3-yl)-5-(trifluoromethyl)pyrimidin-2-yl)amino)phenyl)acetamide] | 7.19 |
| COc1cc(N2CCN(C(C)=O)CC2)ccc1Nc1nc(Nc2cccc(NC(C)=O)c2)ncc1C(F)(F)F [Compound 173, N-(3-((4-((4-(4-acetylpiperazin-1-yl)-2-methoxyphenyl)amino)-5-(trifluoromethyl)pyrimidin-2-yl)amino)phenyl)acetamide] | 7.07 |
| CC(=O)Nc1cc(Nc2ncc(C(F)(F)F)c(-c3cn(C)c4ccc(F)cc34)n2)ccc1N(C)CCN(C)C [Compound 325, N-(2-((2-(dimethylamino)ethyl)(methyl)amino)-5-((4-(5-fluoro-1-methyl-1H-indol-3-yl)-5-(trifluoromethyl)pyrimidin-2-yl)amino)phenyl)acetamide] | 7.40 |
| Cc1cccc2c(-c3nc(Nc4ccc(N5CC[C@H](N(C)C)C5)c(N)c4)ncc3C(F)(F)F)c[nH]c12 [Compound S-367, (S)-4-(3-(dimethylamino)pyrrolidin-1-yl)-N^1-(4-(7-methyl-1H-indol-3-yl)-5-(trifluoromethyl)pyrimidin-2-yl)benzene-1,3-diamine] | 8.34 |
| CC(=O)Nc1cc(Nc2ncc(Cl)c(-c3cn(C)c4c(F)cccc34)n2)ccc1N(C)CCN(C)C [Compound 418, N-(5-((5-chloro-4-(7-fluoro-1-methyl-1H-indol-3-yl)pyrimidin-2-yl)amino)-2-((2-(dimethylamino)ethyl)(methyl)amino)phenyl)acetamide] | 7.10 |
| CNc1cccc(Oc2nc(Nc3ccc(N4CCN(C)CC4)c(F)c3)nc3[nH]ccc23)c1 [Compound 177, N-(3-fluoro-4-(4-methylpiperazin-1-yl)phenyl)-4-(3-(methylamino)phenoxy)-7H-pyrrolo[2,3-d]pyrimidin-2-amine] | 6.88 |
| CCN(CCN(C)C)c1ccc(Nc2nc3c(c(-c4cn(C)c5ccccc45)n2)CCO3)cc1NC(C)=O [Compound 258c, N-(2-((2-(dimethylamino)ethyl)(ethyl)amino)-5-((4-(1-methyl-1H-indol-3-yl)-5,6-dihydrofuro[2,3-d]pyrimidin-2-yl)amino)phenyl)acetamide] | < 6.00 |
| CCN(CCN(C)C)c1c(F)cc(Nc2nc3c(c(-c4cn(C)c5ccccc45)n2)CCO3)cc1NC(C)=O [Compound 258d, N-(2-((2-(dimethylamino)ethyl)(ethyl)amino)-3-fluoro-5-((4-(1-methyl-1H-indol-3-yl)-5,6-dihydrofuro[2,3-d]pyrimidin-2-yl)amino)phenyl)acetamide] | < 6.00 |
| CCN(CCN(C)C)c1c(F)cc(Nc2nc(-c3cn(C)c4ccccc34)c3cc[nH]c3n2)cc1NC(C)=O [Compound 195a, N-(2-((2-(dimethylamino)ethyl)(ethyl)amino)-3-fluoro-5-((4-(1-methyl-1H-indol-3-yl)-7H-pyrrolo[2,3-d]pyrimidin-2-yl)amino)phenyl)acetamide] | 6.82 |
| COc1cnc(Nc2ccc(N(C)CCN(C)C)c(NC(C)=O)c2)nc1-c1cn(C)c2cccc(F)c12 [Compound 277, N-(2-((2-(dimethylamino)ethyl)(methyl)amino)-5-((4-(4-fluoro-1-methyl-1H-indol-3-yl)-5-methoxypyrimidin-2-yl)amino)phenyl)acetamide] | 6.43 |
| CC(=O)Nc1cc(Nc2ncc(Cl)c(-c3cn(C)c4c(C)cccc34)n2)ccc1N(C)CCN(C)C [Compound 429, N-(5-((5-chloro-4-(1,7-dimethyl-1H-indol-3-yl)pyrimidin-2-yl)amino)-2-((2-(dimethylamino)ethyl)(methyl)amino)phenyl)acetamide] | 6.32 |
| CC(=O)Nc1cc(Nc2ncc(C(F)(F)F)c(-c3c[nH]c4c(F)cccc34)n2)ccc1N(CCN(C)C)C(C)=O [Compound 341, N-(2-acetamido-4-((4-(7-fluoro-1H-indol-3-yl)-5-(trifluoromethyl)pyrimidin-2-yl)amino)phenyl)-N-(2-(dimethylamino)ethyl)acetamide] | 6.61 |
| COc1cccc2c(-c3nc(Nc4ccc5c(c4)nc(C)n5CCN(C)C)ncc3C(F)(F)F)c[nH]c12 [Compound 380, 1-(2-(dimethylamino)ethyl)-N-(4-(7-methoxy-1H-indol-3-yl)-5-(trifluoromethyl)pyrimidin-2-yl)-2-methyl-1H-benzo[d]imidazol-5-amine] | 7.30 |
| CCN(C(=O)CN(C)C)c1ccc(Nc2ncc(Cl)c(-c3c[nH]c4ccccc34)n2)cc1N [Compound 448, N-(2-amino-4-((5-chloro-4-(1H-indol-3-yl)pyrimidin-2-yl)amino)phenyl)-2-(dimethylamino)-N-ethylacetamide] | < 6.00 |
| Cc1nc2cc(Nc3ncc(C(F)(F)F)c(-c4c[nH]c5c(F)cccc45)n3)ccc2n1CCN(C)C [Compound 342, 1-(2-(dimethylamino)ethyl)-N-(4-(7-fluoro-1H-indol-3-yl)-5-(trifluoromethyl)pyrimidin-2-yl)-2-methyl-1H-benzo[d]imidazol-5-amine] | 7.61 |
| CNc1cc(Nc2ncc(F)c(-c3c[nH]c4ccccc34)n2)ccc1N(C)CCN(C)C [Compound 260, N^1-(2-(dimethylamino)ethyl)-N^4-(5-fluoro-4-(1H-indol-3-yl)pyrimidin-2-yl)-N^1,N^2-dimethylbenzene-1,2,4-triamine] | 6.84 |
| CCN(CCN(C)C)c1ccc(Nc2ncc(C(F)(F)F)c(-c3c[nH]c4ccccc34)n2)cc1NC(C)=O [Compound 300a, N-(5-((4-(1H-indol-3-yl)-5-(trifluoromethyl)pyrimidin-2-yl)amino)-2-((2-(dimethylamino)ethyl)(ethyl)amino)phenyl)acetamide] | 7.55 |
| CC(=O)Nc1cc(Nc2nc(-c3cn(C)c4ccc(C)cc34)c3cc[nH]c3n2)ccc1N(C)CCN(C)C [Compound 244, N-(5-((4-(1,5-dimethyl-1H-indol-3-yl)-7H-pyrrolo[2,3-d]pyrimidin-2-yl)amino)-2-((2-(dimethylamino)ethyl)(methyl)amino)phenyl)acetamide] | 6.46 |
| CNc1cc(Nc2ncc(F)c(-c3cn(C)c4ccccc34)n2)ccc1N(C)CCN(C)C [Compound 263, N^1-(2-(dimethylamino)ethyl)-N^4-(5-fluoro-4-(1-methyl-1H-indol-3-yl)pyrimidin-2-yl)-N^1,N^2-dimethylbenzene-1,2,4-triamine] | 6.15 |
| CC(=O)Nc1cc(Nc2nc3c(c(-c4cn(C)c5ccccc45)n2)CCO3)cc(F)c1N(C)CCN(C)C [Compound 258b, N-(2-((2-(dimethylamino)ethyl)(methyl)amino)-3-fluoro-5-((4-(1-methyl-1H-indol-3-yl)-5,6-dihydrofuro[2,3-d]pyrimidin-2-yl)amino)phenyl)acetamide] | < 6.00 |
| CC(=O)Nc1cc(Nc2ncc(C(F)(F)F)c(-c3cn(C)c4ccccc34)n2)ccc1N(CCN(C)C)C(C)=O [Compound 314a, N-(2-acetamido-4-((4-(1-methyl-1H-indol-3-yl)-5-(trifluoromethyl)pyrimidin-2-yl)amino)phenyl)-N-(2-(dimethylamino)ethyl)acetamide] | 7.20 |
| CCN(C(=O)CN(C)C)c1ccc(Nc2ncc(Cl)c(-c3c[nH]c4ccccc34)n2)cc1NC(C)=O [Compound 449, N-(2-acetamido-4-((5-chloro-4-(1H-indol-3-yl)pyrimidin-2-yl)amino)phenyl)-2-(dimethylamino)-N-ethylacetamide] | < 6.00 |
| CCN(C(=O)CN(C)C)c1ccc(Nc2ncc(Cl)c(-c3cn(C)c4ccccc34)n2)cc1NC(C)=O [Compound 405, N-(2-acetamido-4-((5-chloro-4-(1-methyl-1H-indol-3-yl)pyrimidin-2-yl)amino)phenyl)-2-(dimethylamino)-N-ethylacetamide] | < 6.00 |
| CCN(CCN(C)C)c1ccc(Nc2ncc(C(F)(F)F)c(-c3cn(C)c4c(F)cccc34)n2)cc1NC(C)=O [Compound 348, N-(2-((2-(dimethylamino)ethyl)(ethyl)amino)-5-((4-(7-fluoro-1-methyl-1H-indol-3-yl)-5-(trifluoromethyl)pyrimidin-2-yl)amino)phenyl)acetamide] | 7.06 |

Same assay, conditions: KM12-Luc, 72 h, read-out: NTRK IC50 in KM12-luc

| SMILES | pIC50 |
| --- | --- |
| CCN(CCN(C)C)c1ccc(Nc2nc(-c3cn(C)c4ccc(F)cc34)c3cc[nH]c3n2)cc1NC(C)=O [Compound 227c, N-(2-((2-(dimethylamino)ethyl)(ethyl)amino)-5-((4-(5-fluoro-1-methyl-1H-indol-3-yl)-7H-pyrrolo[2,3-d]pyrimidin-2-yl)amino)phenyl)acetamide] | 6.36 |
| CCNc1cc(Nc2nc(-c3cn(C)c4ccccc34)c3cc[nH]c3n2)ccc1N(C)CCN(C)C [Compound 205b, N^1-(2-(dimethylamino)ethyl)-N^2-ethyl-N1-methyl-N^4-(4-(1-methyl-1H-indol-3-yl)-7H-pyrrolo[2,3-d]pyrimidin-2-yl)benzene-1,2,4-triamine] | 6.52 |
| CCNc1cc(Nc2nc(-c3cn(C)c4ccc(F)cc34)c3cc[nH]c3n2)ccc1N(C)CCN(C)C [Compound 227b, N^1-(2-(dimethylamino)ethyl)-N^2-ethyl-N^4-(4-(5-fluoro-1-methyl-1H-indol-3-yl)-7H-pyrrolo[2,3-d]pyrimidin-2-yl)-N^1-methylbenzene-1,2,4-triamine] | 6.17 |
